A value given as a limit tells only on which side of the number the result lay.

These results are taken from patent publication US12599672B2, “KRAS proteolysis targeting chimeras” (PAQ Therapeutics Inc., priority 2023, dated 2026).

What all share (format): cell-based
The target in one assay is T1, KRAS G12D (Homo sapiens, UniProt P01116, G12D).
T1 construct: AsPc-1-KRAS (G12D)-HiBit-KI cell (Pharmaron); host or cells: AsPc-1-KRAS (G12D)-HiBit-KI cells (HiBiT knock-in at the endogenous KRAS locus)
T1 sequence (P01116 1-188 isoform P01116-2 G12D): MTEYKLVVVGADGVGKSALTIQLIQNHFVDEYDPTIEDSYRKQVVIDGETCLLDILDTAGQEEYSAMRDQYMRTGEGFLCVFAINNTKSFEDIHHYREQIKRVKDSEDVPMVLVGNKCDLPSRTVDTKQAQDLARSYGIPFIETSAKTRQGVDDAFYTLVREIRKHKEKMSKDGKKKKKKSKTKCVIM
Briefly: KRAS G12D HiBit assay. Conditions: AsPc-1-KRAS (G12D)-HiBit-KI cell, compound treatment for 24 hours; for DC50: absolute DC50. In outline:
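Cells were treated for 24 h with compounds in a 3-fold, 10-point dilution series from a 0.3 mM DMSO stock, then equilibrated 15 min at room temperature. KRAS G12D HiBiT levels were read by luminescence after lytic Nano-Glo HiBiT reagent with LgBiT; inhibition calculated relative to 0.1% DMSO high control.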
A general note: With HiBiT, luminescence reflects the tagged protein that the partner subunit can reach.

A further assay concerns the target T2, KRAS G12V (Homo sapiens, UniProt P01116, G12V).
T2 construct: SW620-KRAS (G12V)-HiBit-KI cell (Pharmaron); host or cells: SW620-KRAS (G12V)-HiBit-KI cells (HiBiT knock-in at the endogenous KRAS locus)
In words: KRAS G12V HiBit assay. Conditions: SW620-KRAS (G12V)-HiBit-KI cells, compound treatment for 24 hours, class symbols. In outline: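 HiBiT-tagged KRAS G12V cells treated 24 h with compound in a 3-fold, 10-point series (0.3 mM DMSO stock); lytic HiBiT reagent with LgBiT added after 15 min room-temperature equilibration. Degradation calculated against 0.1% DMSO high control.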

Another assay deals with T3, KRAS (Homo sapiens, UniProt P01116).
T3 construct: endogenous in cells; host or cells: KE39 (KRAS amplified) cells
T3 sequence (P01116 1-188 isoform P01116-2): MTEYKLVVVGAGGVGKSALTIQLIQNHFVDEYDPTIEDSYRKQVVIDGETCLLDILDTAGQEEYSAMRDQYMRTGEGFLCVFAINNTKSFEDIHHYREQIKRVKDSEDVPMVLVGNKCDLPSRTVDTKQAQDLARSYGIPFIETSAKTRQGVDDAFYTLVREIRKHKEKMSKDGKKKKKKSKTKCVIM
Briefly: KRASamp MSD assay. To be noted: KE39 (KRAS amplified) cells, treated with test compounds for 24 hr, MSD readout of KRAS degradation. In outline:
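KRAS-amplified KE39 cells treated with compound for 24 hr, then lysed in RIPA buffer with protease/phosphatase inhibitors. KRAS protein measured by MSD sandwich immunoassay against a recombinant WT KRAS standard curve; DC50 derived from curve fitting of degradation.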

Where [1] appears, read: numeric bounds given in place of class symbols.

T2 sequence (P01116 1-188 isoform P01116-2 G12V): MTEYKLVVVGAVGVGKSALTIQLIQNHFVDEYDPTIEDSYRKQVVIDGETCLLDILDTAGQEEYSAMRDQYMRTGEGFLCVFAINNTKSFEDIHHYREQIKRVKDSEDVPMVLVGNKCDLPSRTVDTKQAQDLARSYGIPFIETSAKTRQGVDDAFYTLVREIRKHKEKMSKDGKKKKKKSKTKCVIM

For the compound `CCc1c(F)ccc2cc(O)cc(-c3ncc4c(N5CCC[C@@](C)(O)C5)nc(OC[C@@]56CCCN5[C@H](COC(=O)N5CCN(CC7CCN(c8ccc9c(c8)n(C)c(=O)n9C8CCC(=O)NC8=O)CC7)CC5)CC6)nc4c3F)c12` (stereo partly drawn) [Compound 97, [(3S,8S)-8-[[7-(8-ethyl-7-fluoro-3-hydroxy-1-naphthyl)-8-fluoro-4-[(3R)-3-hydro-xy-3-methyl-1-piperidyl]pyrido[4,3-d]pyrimidin-2-yl]oxymethyl]-1,2,3,5,6,7-hexahydropyrrolizin-3-yl]methyl 4-[[1-[1-(2,6-dioxo-3-piperidyl)-3-methyl-2-oxo-benzimidazol-5-yl]-4-piperidyl]methyl]piperazine-1-carboxylate], the values for the DC50 at KRAS G12D (class symbols), on KRAS G12V and at KRAS were below 100 nM, below 10 nM and below 1 nM, respectively. Also, the Dmax on KRAS G12D (class symbols) is above 50%.
Turning to `CCc1c(F)ccc2cc(O)cc(-c3ncc4c(N5CCC[C@@](C)(O)C5)nc(OC[C@@]56CCCN5[C@H](COC(=O)N5CCC(CN7CCC(Cc8ccc9c(c8)n(C)c(=O)n9C8CCC(=O)NC8=O)CC7)CC5)CC6)nc4c3F)c12` (stereo partly drawn) [Compound 429, ((3S,7aS)-7a-(((7-(8-ethyl-7-fluoro-3-hydroxynaphthalen-1-yl)-8-fluoro-4-((R)-3-hydroxy-3-methylpiperidin-1-yl)pyrido[4,3-d]pyrimidin-2-yl)oxy)methyl)hexahydro-1H-pyrrolizin-3-yl)methyl 4-((4-((1-(2,6-dioxopiperidin-3-yl)-3-methyl-2-oxo-2,3-dihydro-1H-benzo[d]imidazol-5-yl)methyl)piperidin-1-yl)methyl)piperidine-1-carboxylate], the DC50 at KRAS G12D (class symbols) was below 100 nM; at KRAS G12V, below 10 nM; on KRAS, below 1 nM.
The like results for `CCc1c(F)ccc2cc(O)cc(-c3ncc4c(N5CCC[C@@](C)(O)C5)nc(OC[C@@]56CCCN5[C@@H](COC(=O)N5CCC(CCCCOc7ccc8c(c7)n(C)c(=O)n8C7CCC(=O)NC7=O)CC5)CC6)nc4c3F)c12` (stereo partly drawn) [Compound 317, ((3R,7aS)-7a-(((7-(8-ethyl-7-fluoro-3-hydroxynaphthalen-1-yl)-8-fluoro-4-((R)-3-hydroxy-3-methylpiperidin-1-yl)pyrido[4,3-d]pyrimidin-2-yl)oxy)methyl)hexahydro-1H-pyrrolizin-3-yl)methyl 4-(4-((1-(2,6-dioxopiperidin-3-yl)-3-methyl-2-oxo-2,3-dihydro-1H-benzo[d]imidazol-5-yl)oxy)butyl)piperidine-1-carboxylate] were, in that order, below 100 nM, above 100 nM and at least 10 nM.
For `CCc1c(F)ccc2cc(O)cc(-c3ccc4c(N5CCC[C@@](C)(O)C5)nc(OC[C@@]56CCCN5[C@H](COC(=O)N5CCC(CN7CCC(c8cc9c(cc8F)n(C8CCC(=O)NC8=O)c(=O)n9C)CC7)CC5)CC6)nc4c3F)c12` (stereo partly drawn) [Compound 424, ((3S,7aS)-7a-(((7-(8-ethyl-7-fluoro-3-hydroxynaphthalen-1-yl)-8-fluoro-4-((R)-3-hydroxy-3-methylpiperidin-1-yl)quinazolin-2-yl)oxy)methyl)hexahydro-1H-pyrrolizin-3-yl)methyl 4-((4-(1-(2,6-dioxopiperidin-3-yl)-6-fluoro-3-methyl-2-oxo-2,3-dihydro-1H-benzo[d]imidazol-5-yl)piperidin-1-yl)methyl)piperidine-1-carboxylate], in that order: below 100 nM, below 10 nM and below 1 nM.
Take `CCc1c(F)ccc2cc(O)cc(-c3ncc4c(N5CCC[C@@](C)(O)C5)nc(OC[C@@]56CCCN5[C@H](COC(=O)N5CCCC5CN5CCC(c7ccc8c(c7)n(C)c(=O)n8C7CCC(=O)NC7=O)CC5)CC6)nc4c3F)c12` (stereo partly drawn) [Compound 434, ((3S,7aS)-7a-(((7-(8-ethyl-7-fluoro-3-hydroxynaphthalen-1-yl)-8-fluoro-4-((R)-3-hydroxy-3-methylpiperidin-1-yl)pyrido[4,3-d]pyrimidin-2-yl)oxy)methyl)hexahydro-1H-pyrrolizin-3-yl)methyl 2-((4-(1-(2,6-dioxopiperidin-3-yl)-3-methyl-2-oxo-2,3-dihydro-1H-benzo[d]imidazol-5-yl)piperidin-1-yl)methyl)pyrrolidine-1-carboxylate]: the values for the DC50 at KRAS G12D (class symbols), on KRAS G12V and at KRAS were below 100 nM, 10 to 100 nM and 1 to 10 nM, respectively.
With `C#Cc1c(F)ccc2cc(O)cc(-c3ncc4c(N5CCOCC5)nc(OC[C@@]56CCCN5[C@H](COC(=O)N5CCC(CN7CCC(c8ccc9c(c8)n(C)c(=O)n9C8CCC(=O)NC8=O)CC7)CC5)CC6)nc4c3F)c12` (stereo partly drawn) [Compound 125, ((3S,7aS)-7A-(((7-(8-Ethynyl-7-fluoro-3-hydroxynaphthalen-1-yl)-8-fluoro-4-morpholinopyrido[4,3-d]pyrimidin-2-yl)oxy)methyl)hexahydro-1H-pyrrolizin-3-yl)methyl 4-((4-(1-(2,6-dioxopiperidin-3-yl)-3-methyl-2-oxo-2,3-dihydro-1H-benzo[d]imidazol-5-yl)piperidin-1-yl)methyl) piperidine-1-carboxylate], the DC50 on KRAS G12D (class symbols) is below 100 nM; at KRAS G12V, below 10 nM; at KRAS, below 1 nM. At KRAS G12D (class symbols), this compound came in with a Dmax above 50%.
With `C#Cc1c(F)ccc2cc(O)cc(-c3ncc4c(N5CCC[C@@](C)(O)C5)nc(OC[C@@]56CCCN5[C@H](COC(=O)N5CCC7(CCC(N8CCC(c9ccc%10c(c9)n(C)c(=O)n%10C9CCC(=O)NC9=O)CC8)CC7)CC5)CC6)nc4c3F)c12` (stereo partly drawn) [Compound 413, ((3S,7aS)-7a-(((7-(8-ethynyl-7-fluoro-3-hydroxynaphthalen-1-yl)-8-fluoro-4-((R)-3-hydroxy-3-methylpiperidin-1-yl)pyrido[4,3-d]pyrimidin-2-yl)oxy)methyl)hexahydro-1H-pyrrolizin-3-yl)methyl 9-(4-(1-(2,6-dioxopiperidin-3-yl)-3-methyl-2-oxo-2,3-dihydro-1H-benzo[d]imidazol-5-yl)piperidin-1-yl)-3-azaspiro[5.5]undecane-3-carboxylate], the DC50 is below 100 nM at KRAS G12D (class symbols), below 10 nM at KRAS G12V and below 1 nM at KRAS.
On to `CCc1c(F)ccc2cc(O)cc(-c3ncc4c(N5CCCC(C)(CO)C5)nc(OC[C@@]56CCCN5[C@H](COC(=O)N5CCC(CN7CCC(c8ccc9c(c8)n(C)c(=O)n9C8CCC(=O)NC8=O)CC7)CC5)CC6)nc4c3F)c12` (stereo partly drawn) [Compound 341, ((3S,7aS)-7a-(((7-(8-ethyl-7-fluoro-3-hydroxynaphthalen-1-yl)-8-fluoro-4-(3-(hydroxymethyl)-3-methylpiperidin-1-yl)pyrido[4,3-d]pyrimidin-2-yl)oxy)methyl)hexahydro-1H-pyrrolizin-3-yl)methyl 4-((4-(1-(2,6-dioxopiperidin-3-yl)-3-methyl-2-oxo-2,3-dihydro-1H-benzo[d]imidazol-5-yl)piperidin-1-yl)methyl)piperidine-1-carboxylate], for which the DC50 was above 100 nM on KRAS G12D (setting [1]), above 100 nM at KRAS G12V and at least 10 nM on KRAS.
In the case of `CCc1c(F)ccc2cc(O)cc(-c3ncc4c(N5CCN6CCCC6C5)nc(OC[C@@]56CCCN5[C@H](COC(=O)N5CCC7(CC5)CC(N5CCC(c8ccc9c(c8)n(C)c(=O)n9C8CCC(=O)NC8=O)CC5)C7)CC6)nc4c3F)c12` (stereo partly drawn) [Compound 345, ((3S,7aS)-7a-(((7-(8-ethyl-7-fluoro-3-hydroxynaphthalen-1-yl)-8-fluoro-4-(hexahydropyrrolo[1,2-a]pyrazin-2(1H)-yl)pyrido[4,3-d]pyrimidin-2-yl)oxy)methyl)hexahydro-1H-pyrrolizin-3-yl)methyl 2-(4-(1-(2,6-dioxopiperidin-3-yl)-3-methyl-2-oxo-2,3-dihydro-1H-benzo[d]imidazol-5-yl)piperidin-1-yl)-7-azaspiro[3.5]nonane-7-carboxylate], the DC50 at KRAS G12D (setting [1]) was above 100 nM; at KRAS G12V, above 100 nM; at KRAS, 1 to 10 nM.
In the case of `CCc1c(F)ccc2cc(O)cc(-c3ncc4c(N5CCC[C@@](C)(O)C5)nc(OC[C@@]56CCCN5[C@H](COC(=O)N5CC7(CCC(N8CCC(c9ccc%10c(c9)n(C)c(=O)n%10C9CCC(=O)NC9=O)CC8)CC7)C5)CC6)nc4c3F)c12` (stereo partly drawn) [Compound 467, ((3S,7aS)-7a-(((7-(8-ethyl-7-fluoro-3-hydroxynaphthalen-1-yl)-8-fluoro-4-((R)-3-hydroxy-3-methylpiperidin-1-yl)pyrido[4,3-d]pyrimidin-2-yl)oxy)methyl)hexahydro-1H-pyrrolizin-3-yl)methyl 7-(4-(1-(2,6-dioxopiperidin-3-yl)-3-methyl-2-oxo-2,3-dihydro-1H-benzo[d]imidazol-5-yl)piperidin-1-yl)-2-azaspiro[3.5]nonane-2-carboxylate], the DC50 was below 100 nM on KRAS G12D (class symbols), below 10 nM at KRAS G12V and below 1 nM on KRAS.
